Data taken from patent publication US20020183365A1, “Method for treating fibrotic diseases or other indications IIIC” (priority 2000, published 2002).
Where a name gives a salt, the structure may show the parent alone.

Tests used:
[1] = series exploring certain imidazolium compounds; cited from earlier work
Rats = assay: Rat myocardial infarct model (coronary artery ligation), histological examination of hearts; type: in vivo; settings: daily intraperitoneal 10 mg/kg for 30 days before and 14 days after ligation; placebo 0.16±0.04 g; p=0.04
Protocol: Rats received a daily intraperitoneal dose of 10 mg/kg 3-[2-phenyl-2-oxoethyl]-4,5-dimethyl-thiazolium salt (compound A) (n=14) or placebo (n=15) for 30 days. The animals then underwent a thoracotomy and the left anterior descending coronary artery ligated. The chest was then closed and the animals allowed to recover for 14 days while continuing to be treated with compound A or placebo. The animals were then sacrificed and the hearts removed for histological examination. The weight of the infarcted tissue was 0.16±0.04 g for the placebo treated animals compared to 0.11±0.05 g for the compound A treated animals (p=0.04).

[2] = test system: elderly patients with pulse pressures greater than 60 mm Hg; assay: Phase IIa clinical trial; type: in vivo, human
Source text: When the heart pumps blood into the vascular system, the ability of the arteries to expand helps to push blood through the body. When arteries become stiff, as they do in the natural process of aging, the ability of the arteries to expand is diminished and also has consequences for the heart. The heart has to work harder to pump the blood into the stiff arteries, and eventually hypertrophies (enlarges in size) to accomplish this. A hypertrophied heart is an inefficient pump, and is one of the disorders that leads to congestive heart failure. […] The potential clinical benefit of this is to lessen the effort that the heart must expend to push blood throughout the body. The effect is also believed to contribute to preventing hypertrophy and subsequent inefficiency of the heart, which inefficiency would contribute to congestive heart failure.
Atherosclerosis is a disease that involves deposition of blood lipids in plaque in the arteries throughout the body. In coronary arteries, accumulation of plaque progressively leads to reduced coronary flow, with occlusion of the arteries causing focal death of cardiac tissue (myocardial infarction, heart attack). If the amount of tissue that dies is large enough, death ensures. […] Reducing local deposits of plaque should eventually lessen the risk of myocardial infarction and death due to heart attacks.
Pulse pressure is the difference between systolic and diastolic blood pressure. In a young human, systolic pressure is typically 120 mm Hg and diastolic pressure is 80 mm Hg, resulting in a pulse pressure of 40 mm Hg. With age, in many individuals pulse pressure increases, largely due to the increase in systolic pressure that results from stiff vessel disease. In individuals with pulse pressure greater than 60 mm Hg there is an increased risk of death from cardiovascular morbidities. […] This decrease in pulse pressure was believed to be due primarily to the effect of the agent on lowering the systolic blood pressure.

dog model for diabetes = assay: Dog model for diabetes, ventricular elasticity; type: in vivo
Source text: (§1) Cardiovascular risk correlates more closely with the systolic and the pulse pressure than with the diastolic pressure. In diabetic patients, the cardiovascular risk profile of diabetic patients is strongly correlated to duration of diabetes, glycemic control and blood pressure. Structural matrix proteins contribute to the function of vessels and the heart, and changes in the physical behavior of cardiovascular walls are believed to be important determinants of circulatory function. In elderly individuals, the loss of compliance in the aorta leads to isolated systolic hypertension, which in turn expands the arterial wall and thereby diminishes the dynamic range of elasticity.

[3] = test system: rodents, canines and primates; assay: In vivo studies of vascular stiffening
Source text: as §1

[4] = test system: collagen in cardiovascular tissues; assay: Mass of collagen in cardiovascular tissues after treatment; settings: in vivo
Source text: as §1

Type IV collagen = assay: In situ hybridization studies, Type IV collagen
Source text: as §1

TGFbeta = assay: In situ hybridization studies, TGFbeta
Source text: as §1

| Compound | glucose lowering effect [1] | weight of the infarcted tissue (Rats) | stiffness of arteries, as measured by the ratio of stroke volume (ml) to pulse pressure (mm Hg) ([2]; Phase IIa clinical trial) | amount of circulating triglycerides (lipids) ([2]; Phase IIa trial) | pulse pressure ([2]; Phase IIa trial, elderly patients with pulse pressures greater than 60 mm Hg, statistically significant) | end diastolic pressure, indicator of ventricular elasticity (dog model for diabetes) | end diastolic volume, indicator of ventricular elasticity (dog model for diabetes) | vascular stiffening [3] | mass of collagen in cardiovascular tissues [4] | expression of Type IV collagen (Type IV collagen) | expression of TGFbeta (TGFbeta) |
| --- | --- | --- | --- | --- | --- | --- | --- | --- | --- | --- | --- |
| Cc1ccc(C(=O)C[n+]2ccccc2)cc1.[Cl-] [1-[2-(4-methylphenyl)-2-oxoethyl]-pyridinium chloride] | inactive |  |  |  |  |  |  |  |  |  |  |
| Cc1sc[n+](CC(=O)c2ccccc2)c1C [compound A, 3-[2-phenyl-2-oxoethyl]-4,5-dimethyl-thiazolium salt] |  | 0.11 ± 0.05 g | showed an ability to reverse the stiffness of arteries | increased the amount of circulating triglycerides | reduced pulse pressure | returned to a value at about the mid-point between the disease impaired value and the value for control dogs | returned to a value at about the mid-point between the disease impaired value and the value for control dogs | substantially ameliorating vascular stiffening | reduction in the mass of collagen | reduces the expression | reduces the expression |
